Reference: US20240067693A1, “POLYPEPTIDES AND USES THEREOF” (MEDIMMUNE LIMITED, priority 2020, published 2024)
Numbered stars: 1 amine (or outer) side, 2 acyl side, 3 side chain; on linkers, the order of the positions; unused ones are H or OH. Bridge positions count the residues as written; N and C are the ends. Square brackets hold non-standard residues; d marks the D form. Side chains are listed from the residue outwards. Peptide text beside a SMILES is read from it. * marks the point of attachment. C20 diacid = O=C(O)CCCCCCCCCCCCCCCCCCC(=O)*; C18 diacid = O=C(O)CCCCCCCCCCCCCCCCC(=O)*; γGlu = O=C(O)[C@H](CCC(=O)[*:2])N[*:1]; αMeF = C[C@](N)(Cc1ccccc1)C(=O)O; AEEA = NCCOCCOCC(=O)O; Aib = CC(C)(N)C(=O)O

Columns and labels:
[1] = biological target: T1, human calcitonin receptor (hCTR) (Homo sapiens, UniProt P30988); assay: cAMP production in 1321N1 cells with stable recombinant expression of human calcitonin receptor (hCTR); type: cell-based; settings: cAMP, 1321N1 cells, assay buffer with 0.1% BSA; read-out: EC50 (pM) hCTR
T1 construct: expressed in transfected cells
T1 sequence (P30988 25-474): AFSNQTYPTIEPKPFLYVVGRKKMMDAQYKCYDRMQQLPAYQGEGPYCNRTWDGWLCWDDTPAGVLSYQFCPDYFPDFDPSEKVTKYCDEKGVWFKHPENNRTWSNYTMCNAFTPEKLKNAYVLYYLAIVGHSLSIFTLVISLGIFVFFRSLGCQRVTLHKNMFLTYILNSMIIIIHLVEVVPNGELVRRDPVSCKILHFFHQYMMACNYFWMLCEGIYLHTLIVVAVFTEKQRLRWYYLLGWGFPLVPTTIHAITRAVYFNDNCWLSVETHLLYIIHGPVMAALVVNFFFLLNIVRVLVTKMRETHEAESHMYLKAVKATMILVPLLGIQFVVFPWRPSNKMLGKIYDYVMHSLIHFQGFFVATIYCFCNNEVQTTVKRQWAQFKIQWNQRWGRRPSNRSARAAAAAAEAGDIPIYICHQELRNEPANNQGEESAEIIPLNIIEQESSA
In short: (§1)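 EC50 values come from 4-parameter logistic fits of HTRF cAMP signal, normalised to maximal calcitonin or amylin effect. Peptides were tested in duplicate for 30 min at RT in IBMX-containing (0.5 mM) BSA/HEPES buffer pH 7.4 on stable 1321N1 (human CTR, AMYR3) or HEK (rat CTR, AMYR3) lines.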

[2] = Thioflavin T fibrillation assay; type: physicochemical; settings: for fibril-forming tendency: ThT assay, 1 mg/mL, pH 4.0, 37 °C, compared to pramlintide; for Time taken to detect increase in fluorescence intensity: ThT fibrillation assay, peptide 1 mg/mL in 25 mM sodium acetate buffer pH 4.0, 6 days at 37 °C with shaking, >144 h = no increase
In short: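 Peptides at 1 mg/mL in 25 mM sodium acetate pH 4.0 with ThT (from 0.25 mM stock), incubated 6 days at 37 °C with intermittent orbital shaking at 500–750 rpm. Fluorescence (ex 444/em 480 nm) read every 30 min; value is average time to a rise in baseline-corrected signal.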

[3] = biological target: T2, rat calcitonin receptor (rat CTR) (Rattus norvegicus, UniProt P32214); assay: cAMP production in HEK cells with stable recombinant expression of rat calcitonin receptor (rat CTR); type: cell-based; settings: assay buffer with 0.1% BSA
T2 construct: expressed in transfected cells
T2 sequence (P32214 25-516): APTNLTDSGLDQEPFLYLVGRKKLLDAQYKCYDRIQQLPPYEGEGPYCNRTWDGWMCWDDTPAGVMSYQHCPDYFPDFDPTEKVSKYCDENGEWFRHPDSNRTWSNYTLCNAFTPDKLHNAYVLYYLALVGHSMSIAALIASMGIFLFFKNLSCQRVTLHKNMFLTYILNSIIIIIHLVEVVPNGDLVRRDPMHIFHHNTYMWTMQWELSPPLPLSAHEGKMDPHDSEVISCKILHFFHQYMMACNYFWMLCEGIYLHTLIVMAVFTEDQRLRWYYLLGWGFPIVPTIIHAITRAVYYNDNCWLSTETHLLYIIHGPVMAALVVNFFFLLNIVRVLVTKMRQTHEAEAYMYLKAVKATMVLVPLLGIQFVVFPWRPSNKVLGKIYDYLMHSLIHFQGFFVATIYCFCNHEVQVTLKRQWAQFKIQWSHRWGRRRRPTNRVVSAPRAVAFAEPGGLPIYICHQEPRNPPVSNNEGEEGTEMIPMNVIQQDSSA
In short: as §1

[4] = biological target: T3, human amylin receptor (calcitonin receptor co-expressed with receptor activity modifying protein, RAMP3) (hAMYR3) (Homo sapiens, UniProt O60896+P30988); assay: cAMP production in 1321N1 cells with stable recombinant expression of human amylin receptor (hAMYR3); type: cell-based; settings: for Ratio (selectivity hAMYR vs hCTR, ratio of EC50 values at the two receptors): EC50 hCTR / EC50 hAMYR3; for EC50: cAMP, 1321N1 cells, assay buffer with 0.1% BSA, read-out: EC50 (pM) hAMYR3
T3 construct: expressed in transfected cells
T3 sequence (P30988 25-474): T1 sequence (P30988 25-474)
T3 sequence (O60896 24-148 partner): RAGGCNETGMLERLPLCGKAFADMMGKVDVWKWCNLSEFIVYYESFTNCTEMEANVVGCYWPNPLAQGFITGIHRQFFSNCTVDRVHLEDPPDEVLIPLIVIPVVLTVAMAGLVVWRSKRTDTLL
In short: as §1

| Structure (SMILES) | EC50 [1] | fibril-forming tendency [2] | Time taken to detect increase in fluorescence intensity [2] | EC50 [3] | Ratio (selectivity hAMYR vs hCTR, ratio of EC50 values at the two receptors) [4] | EC50 [4] |
| --- | --- | --- | --- | --- | --- | --- |
| CC[C@H](C)[C@H](NC(=O)[C@@H]1CCCN1C(=O)CNC(=O)[C@H](Cc1ccccc1)NC(=O)[C@H](CC(N)=O)NC(=O)[C@H](CC(N)=O)NC(=O)[C@H](CO)NC(=O)[C@H](CO)NC(=O)[C@H](Cc1c[nH]cn1)NC(=O)[C@@H](NC(=O)[C@H](CC(C)C)NC(=O)[C@H](Cc1ccccc1)NC(=O)[C@H](CC(N)=O)NC(=O)[C@H](C)NC(=O)[C@H](CC(C)C)NC(=O)[C@H](CCCNC(=N)N)NC(=O)[C@H](CCC(N)=O)NC(=O)[C@@H](NC(=O)[C@H](C)NC(=O)[C@@H]1CSSC[C@H](NC(=O)[C@H](CCCCN)NC(=O)COCCOCCNC(=O)COCCOCCNC(=O)CC[C@H](NC(=O)CCCCCCCCCCCCCCCCCCC(=O)O)C(=O)O)C(=O)N[C@@H](CC(N)=O)C(=O)N[C@@H]([C@@H](C)O)C(=O)N[C@@H](C)C(=O)N[C@@H]([C@@H](C)O)C(=O)N1)[C@@H](C)O)C(C)C)C(=O)N[C@@H](CC(C)C)C(=O)N1CCC[C@H]1C(=O)N1CCC[C@H]1C(=O)N[C@H](C(=O)N[C@@H](CC(N)=O)C(=O)N[C@H](C(=O)NCC(=O)N[C@@H](CO)C(=O)N[C@@H](CC(N)=O)C(=O)N[C@H](C(=O)N[C@@H](Cc1ccc(O)cc1)C(N)=O)[C@@H](C)O)C(C)C)[C@@H](C)O [Peptide 113] ({C20 diacid-γGlu-AEEA-AEEA}-KCNTATCATQRLANFLVHSSNNFGPILPPTNVGSNTY-NH2; disulfide 2-7) | 18500 pM | increases the fibril-forming tendency | <5 h | 10400 pM | 16 | 1170 pM |
| CC[C@H](C)[C@H](NC(=O)[C@@H]1CCCN1C(=O)CNC(=O)[C@H](Cc1ccccc1)NC(=O)[C@H](CC(N)=O)NC(=O)[C@H](CC(N)=O)NC(=O)[C@H](CO)NC(=O)[C@H](CO)NC(=O)[C@H](Cc1c[nH]cn1)NC(=O)[C@@H](NC(=O)[C@H](CC(C)C)NC(=O)[C@H](Cc1ccccc1)NC(=O)[C@H](CC(N)=O)NC(=O)[C@H](C)NC(=O)[C@H](CC(C)C)NC(=O)[C@H](CCCNC(=N)N)NC(=O)[C@H](CCC(N)=O)NC(=O)[C@@H](NC(=O)[C@H](C)NC(=O)[C@@H]1CSSC[C@H](NC(=O)[C@H](CCCCN)NC(=O)CC[C@H](NC(=O)CCCCCCCCCCCCCCCCC(=O)O)C(=O)O)C(=O)N[C@@H](CC(N)=O)C(=O)N[C@@H]([C@@H](C)O)C(=O)N[C@@H](C)C(=O)N[C@@H]([C@@H](C)O)C(=O)N1)[C@@H](C)O)C(C)C)C(=O)N[C@@H](CC(C)C)C(=O)N1CCC[C@H]1C(=O)N1CCC[C@H]1C(=O)N[C@H](C(=O)N[C@@H](CC(N)=O)C(=O)N[C@H](C(=O)NCC(=O)N[C@@H](CO)C(=O)N[C@@H](CC(N)=O)C(=O)N[C@H](C(=O)N[C@@H](Cc1ccc(O)cc1)C(N)=O)[C@@H](C)O)C(C)C)[C@@H](C)O [Peptide 3] ({C18 diacid-γGlu}-KCNTATCATQRLANFLVHSSNNFGPILPPTNVGSNTY-NH2; disulfide 2-7) | 1350 pM | increases the fibril-forming tendency | <5 h | 186 pM | 5 | 246 pM |
| CC[C@H](C)[C@H](NC(=O)[C@@H]1CCCN1C(=O)CNC(=O)[C@](C)(Cc1ccccc1)NC(=O)[C@H](CC(N)=O)NC(=O)[C@H](CC(N)=O)NC(=O)[C@H](CO)NC(=O)[C@H](CO)NC(=O)[C@H](Cc1c[nH]cn1)NC(=O)[C@H](CCCNC(=N)N)NC(=O)[C@H](CC(C)C)NC(=O)[C@H](Cc1ccccc1)NC(=O)[C@H](CCC(=O)O)NC(=O)[C@H](C)NC(=O)[C@H](CC(C)C)NC(=O)[C@H](CCCNC(=N)N)NC(=O)[C@H](CCC(N)=O)NC(=O)[C@@H](NC(=O)[C@H](C)NC(=O)[C@@H]1CSSC[C@H](NC(=O)CC[C@H](NC(=O)CCCCCCCCCCCCCCCCC(=O)O)C(=O)O)C(=O)N[C@@H](CC(N)=O)C(=O)N[C@@H]([C@@H](C)O)C(=O)N[C@@H](C)C(=O)N[C@@H]([C@@H](C)O)C(=O)N1)[C@@H](C)O)C(=O)N[C@@H](CC(C)C)C(=O)N1CCC[C@H]1C(=O)N1CCC[C@H]1C(=O)N[C@H](C(=O)N[C@@H](CC(N)=O)C(=O)N[C@H](C(=O)NCC(=O)N[C@@H](CO)C(=O)N[C@@H](CC(N)=O)C(=O)N[C@H](C(=O)N[C@@H](Cc1ccc(O)cc1)C(N)=O)[C@@H](C)O)C(C)C)[C@@H](C)O [Peptide 10, C18diacid-γE-[CNTATC]ATQRLAEFLRHSSNN(αMePhe)GPILPPTNVGSNTY-amide] ({C18 diacid-γGlu}-CNTATCATQRLAEFLRHSSNN[αMeF]GPILPPTNVGSNTY-NH2; disulfide 1-6) | 2730 pM |  | >144 h | 2780 pM | 15 | 183 pM |
| CC[C@H](C)[C@H](NC(=O)[C@@H]1CCCN1C(=O)CNC(=O)[C@H](Cc1ccccc1)NC(=O)[C@H](CC(N)=O)NC(=O)C(C)(C)NC(=O)[C@H](CO)NC(=O)[C@H](CO)NC(=O)[C@H](Cc1c[nH]cn1)NC(=O)[C@H](CCCNC(=N)N)NC(=O)[C@H](CC(C)C)NC(=O)[C@H](Cc1ccccc1)NC(=O)[C@H](CC(N)=O)NC(=O)[C@H](C)NC(=O)[C@H](CC(C)C)NC(=O)[C@H](CCCNC(=N)N)NC(=O)[C@H](CCC(N)=O)NC(=O)[C@@H](NC(=O)[C@H](C)NC(=O)[C@@H]1CSSC[C@H](NC(=O)[C@@H](N)CCCCNC(=O)CC[C@H](NC(=O)CCCCCCCCCCCCCCCCC(=O)O)C(=O)O)C(=O)N[C@@H](CC(N)=O)C(=O)N[C@@H]([C@@H](C)O)C(=O)N[C@@H](C)C(=O)N[C@@H]([C@@H](C)O)C(=O)N1)[C@@H](C)O)C(=O)N[C@@H](CC(C)C)C(=O)N1CCC[C@H]1C(=O)N1CCC[C@H]1C(=O)N[C@H](C(=O)N[C@@H](CCC(=O)O)C(=O)N[C@H](C(=O)NCC(=O)N[C@@H](CO)C(=O)N[C@@H](CC(N)=O)C(=O)N[C@H](C(=O)N[C@@H](Cc1ccc(O)cc1)C(N)=O)[C@@H](C)O)C(C)C)[C@@H](C)O [Peptide 44, K(γE-C18diacid)[CNTATC]ATQRLANFLRHSS(Aib)NFGPILPPTEVGSNTY-amide] (H-K([γGlu-C18 diacid])CNTATCATQRLANFLRHSS[Aib]NFGPILPPTEVGSNTY-NH2; disulfide 2-7; N-terminus assumed) | 6260 pM |  | >144 h | 2240 pM | 22 | 284 pM |
